In patent US12528837B2, “Aryl substituted polymyxin derivatives” (priority 2018, dated 2026):
≈ marks a conversion by molar mass, not a printed value. Read-outs that look alike come from different tables or passages of the source. *1 amine or outer side, *2 acyl side, *3 side chain or, on linkers, in order; H or OH if unused. Where a SMILES comes first, the peptide text is derived from it. Bridges are numbered along the chain shown (N, C = ends). [ ]: non-standard residue; d: D form. The star is where a group is joined. GABA(3S-Bn) = O=C(C[C@@H](CN[*:1])Cc1ccccc1)[*:2]; GABA(3R-Bn) = O=C(C[C@H](CN[*:1])Cc1ccccc1)[*:2]; X14 = NC[C@@H](CC(=O)*)c1cccc(-c2ccsc2)c1; X20 = NC[C@H](CC(=O)*)c1cccc(-c2ccccc2)c1; X23 = NC[C@H](CC(=O)*)c1cccc(-c2ccsc2)c1; X18 = NC[C@@H](CC(=O)*)c1cc(Cl)cc(Cl)c1; X22 = CC(C)Cc1cccc([C@H](CN)CC(=O)*)c1; X24 = NCC[C@@H](C(=O)*)c1ccc(Cl)cc1; X25 = NCC[C@@H](C(=O)*)c1cccc(Cl)c1; X1 = NC[C@@H](CC(=O)*)c1cccc(Cl)c1; X10 = Cc1cccc([C@@H](CN)CC(=O)*)c1; dNle = CCCC[C@@H](N)C(=O)O; Dab = NCC[C@H](N)C(=O)O; Abu = CC[C@H](N)C(=O)O; Dap = NC[C@H](N)C(=O)O

Assays:
[1] = system: P. aeruginosa CCUG 59347; type: cell-based
Protocol: (§1) The inoculum was prepared by making a direct suspension of isolated colonies (selected from an 18-24 hour Mueller-Hinton agar plate) adjusted to the 0.5 McFarland standard. […] The assays were performed in duplicate. […] Several of the compounds were subjected to multiple tests, and where this is the case, the MIC presented is the median value obtained. The MIC values are quoted in μg/mL.

[2] = system: E. coli CA58; type: cell-based
Protocol: as §1

[3] = system: K. pneumoniae CA64; type: cell-based
Protocol: as §1

[4] = system: K. pneumoniae ATCC 13822; type: cell-based
Protocol: (§2) The inoculum was prepared by making a direct suspension of isolated colonies (selected from an 18-24 hour Mueller-Hinton agar plate) adjusted to the 0.5 McFarland standard. […] The assays were performed in duplicate. […] The MIC values are quoted in μg/mL.

[5] = system: E. coli ATCC 25922; type: cell-based
Protocol: as §2

[6] = system: P. aeruginosa ATCC 27853; type: cell-based
Protocol: as §2

[7] = system: A. baumannii NCTC 13424; type: cell-based
Protocol: as §2

[8] = system: HK-2 cells; assay: In vitro renal cell toxicity assay (HK-2); type: cell-based
Protocol: The in vitro renal cell toxicity assay was performed according to the following protocol. […] Cells were seeded at 7,500 cells per well in 96-well plates and allowed to adhere overnight. […] Water and DMSO levels were kept constant at 5% and 0.5% respectively. The test compounds were incubated with cells for 24 h at 37° C. 5% CO2 in a humidified atmosphere. […] Media only background values were subtracted before the data was analysed using GraphPad Prism. Individual values were normalised to the vehicle control wells for each compound. Compound concentration values were plotted as log values to enable a dose-response curve to be fitted. The bottom of the curve was constrained to zero and IC50 values were determined. IC50 values are expressed relative to that for PMB in the same experiment. Where multiple determinations have been made, median values are presented.

[9] = Kidney drug level after subcutaneous dose in mouse; type: in vivo; details: mouse, in vivo
Protocol: Four hours after dosing the animals were euthanised and kidneys removed, trimmed of fat and connective tissue, weighed and immediately snap-frozen. After thawing at room temperature, pairs of kidneys from each animal were placed in 2 mL conical tubes containing pre-weighed ceria-stabilised zirconium oxide beads. […] After 10 min. centrifugation at 13,000 rpm and 6° C., 200 μl of the supernatants were transferred into glass inserts and analysed by LC-MS-MS.

[10] = cation-adjusted Mueller-Hinton Broth, 18-20 h, 35° C.

Compound	MIC P. aeruginosa CCUG 59347 [1, 10] [µg/mL]	MIC E. coli CA58 [2, 10] [µg/mL]	MIC K. pneumoniae CA64 [3, 10] [µg/mL]	MIC P. aeruginosa CCUG 59347 ([1]; CCUG 59347) [µg/mL]	MIC E. coli CA58 ([2]; CA58) [µg/mL]	MIC K. pneumoniae CA64 ([3]; CA64) [µg/mL]	MIC P. aeruginosa ATCC 27853 ([6]; ATCC 27853) [µg/mL]	further results
CC[C@@H]1NC(=O)[C@@H](CC(C)C)NC(=O)[C@H](CCN)NC(=O)[C@@H](NC(=O)[C@H](CN)NC(=O)[C@@H](NC(=O)C[C@@H](CN)c2cccc(-c3ccccc3)c2)[C@@H](C)O)CCNC(=O)[C@H]([C@@H](C)O)NC(=O)[C@H](CCN)NC(=O)[C@H](CCN)NC1=O [Example 25] (X20-T[Dap][Dab][Dab][dL][Abu][Dab][Dab]T; lactam 3-C)	0.5 (≈ 0.445 µM)	16 (≈ 14.2 µM)	2 (≈ 1.78 µM)	–	–	–	–	MIC K. pneumoniae ATCC 13822 [4, 10]: 0.5 µg/mL (≈ 0.445 µM); MIC E. coli ATCC 25922 [5, 10]: 0.25 µg/mL (≈ 0.222 µM); MIC P. aeruginosa ATCC 27853 [6, 10]: 0.25 µg/mL (≈ 0.222 µM)
CC(C)C[C@@H]1NC(=O)[C@@H](CC(C)C)NC(=O)[C@H](CCN)NC(=O)[C@@H](NC(=O)[C@H](CN)NC(=O)[C@@H](NC(=O)C[C@@H](CN)Cc2ccccc2)[C@@H](C)O)CCNC(=O)[C@H]([C@@H](C)O)NC(=O)[C@H](CCN)NC(=O)[C@H](CCN)NC1=O [Example 8, (S)-4-amino-3- benzylbutanoyl-Thr- Dap-Cyclo[Dab-Dab- DLeu-Leu-Dab-Dab- Thr], Isomer 2] ({GABA(3S-Bn)}-T[Dap][Dab][Dab][dL]L[Dab][Dab]T; lactam 3-C)	0.5 (≈ 0.459 µM)	16 (≈ 14.7 µM)	32 (≈ 29.3 µM)	–	–	–	–	MIC P. aeruginosa ATCC 27853 [6, 10]: 0.06 µg/mL (≈ 0.055 µM); MIC A. baumannii NCTC 13424 [7, 10]: 0.25 µg/mL (≈ 0.229 µM)
CC[C@@H]1NC(=O)[C@@H](CC(C)C)NC(=O)[C@H](CCN)NC(=O)[C@@H](NC(=O)[C@H](CN)NC(=O)[C@@H](NC(=O)C[C@@H](CN)c2cccc(-c3ccsc3)c2)[C@@H](C)O)CCNC(=O)[C@H]([C@@H](C)O)NC(=O)[C@H](CCN)NC(=O)[C@H](CCN)NC1=O [Example 31, (R)-4-amino-3-(3- (thiophen-3-yl)phenyl)butanoyl- Thr-Dap-Cyclo[Dab- Dab-DLeu-Abu-Dab- Dab-Thr]] (X23-T[Dap][Dab][Dab][dL][Abu][Dab][Dab]T; lactam 3-C)	–	–	–	0.25 (≈ 0.221 µM)	16 (≈ 14.2 µM)	4 (≈ 3.54 µM)	0.25 (≈ 0.221 µM)	MIC K. pneumoniae ATCC 13822 ([4]; ATCC 13822): 0.25 µg/mL (≈ 0.221 µM)
CC[C@@H]1NC(=O)[C@@H](CC(C)C)NC(=O)[C@H](CCN)NC(=O)[C@@H](NC(=O)[C@H](CN)NC(=O)[C@@H](NC(=O)C[C@@H](CN)c2cccc(CC(C)C)c2)[C@@H](C)O)CCNC(=O)[C@H]([C@@H](C)O)NC(=O)[C@H](CCN)NC(=O)[C@H](CCN)NC1=O [Example 27, (R)-4-amino-3-(3- isobutylphenyl)butanoyl- Thr- Dap- Cyclo[Dab-Dab-DLeu- Abu-Dab-Dab-Thr]] (X22-T[Dap][Dab][Dab][dL][Abu][Dab][Dab]T; lactam 3-C)	–	–	–	0.5 (≈ 0.453 µM)	16 (≈ 14.5 µM)	2 (≈ 1.81 µM)	0.5 (≈ 0.453 µM)	MIC K. pneumoniae ATCC 13822 ([4]; ATCC 13822): 0.25 µg/mL (≈ 0.226 µM); MIC E. coli ATCC 25922 ([5]; ATCC 25922): 0.25 µg/mL (≈ 0.226 µM)
CC[C@@H]1NC(=O)[C@@H](CC(C)C)NC(=O)[C@H](CCN)NC(=O)[C@@H](NC(=O)[C@H](CN)NC(=O)[C@@H](NC(=O)C[C@H](CN)c2cccc(Cl)c2)[C@@H](C)O)CCNC(=O)[C@H]([C@@H](C)O)NC(=O)[C@H](CCN)NC(=O)[C@H](CCN)NC1=O [Example 23] (X1-T[Dap][Dab][Dab][dL][Abu][Dab][Dab]T; lactam 3-C)	0.5 (≈ 0.462 µM)	32 (≈ 29.6 µM)	64 (≈ 59.1 µM)	–	–	–	–	HK-2 rel to PMB ([8]; IC50 relative to PMB in the same experiment, 24 h): >41; MIC P. aeruginosa ATCC 27853 [6, 10]: 0.25 µg/mL (≈ 0.231 µM); tissue level at time at 4 h ([9]; mice, 17.2 mg/kg free base sc, 4 h, read-out: 4 hr kidney level): 263000 ng/g
CCCC[C@H]1NC(=O)[C@H](CCN)NC(=O)[C@@H](NC(=O)[C@H](CN)NC(=O)[C@@H](NC(=O)C[C@H](CN)c2cc(Cl)cc(Cl)c2)[C@@H](C)O)CCNC(=O)[C@H]([C@@H](C)O)NC(=O)[C@H](CCN)NC(=O)[C@H](CCN)NC(=O)[C@H](CC)NC1=O [Example 28, (S)-4-amino-3-(3,5- dichlorophenyl)butanoyl- Thr-Dap- Cyclo[Dab-Dab- DnorLeu-Abu-Dab- Dab-Thr]] (X18-T[Dap][Dab][Dab][dNle][Abu][Dab][Dab]T; lactam 3-C)	–	–	–	0.25 (≈ 0.224 µM)	16 (≈ 14.3 µM)	8 (≈ 7.16 µM)	0.25 (≈ 0.224 µM)	HK-2 rel to PMB [8]: 68.5; MIC A. baumannii NCTC 13424 ([7]; NCTC 13424): 0.06 µg/mL (≈ 0.0537 µM); tissue level at time at 4 h ([9]; sc, 17.2 mg/kg): 408000 ng/g
CC(C)C[C@@H]1NC(=O)[C@@H](CC(C)C)NC(=O)[C@H](CCN)NC(=O)[C@@H](NC(=O)[C@H](CN)NC(=O)[C@@H](NC(=O)C[C@H](CN)Cc2ccccc2)[C@@H](C)O)CCNC(=O)[C@H]([C@@H](C)O)NC(=O)[C@H](CCN)NC(=O)[C@H](CCN)NC1=O [Example 7, (R)-4-amino-3- benzylbutanoyl -Thr- Dap-Cyclo[Dab-Dab- DLeu-Leu-Dab-Dab- Thr]. Isomer 1] ({GABA(3R-Bn)}-T[Dap][Dab][Dab][dL]L[Dab][Dab]T; lactam 3-C)	0.25 (≈ 0.229 µM)	16 (≈ 14.7 µM)	32 (≈ 29.3 µM)	–	–	–	–	MIC E. coli ATCC 25922 [5, 10]: 0.25 µg/mL (≈ 0.229 µM)
CC(C)C[C@@H]1NC(=O)[C@@H](Cc2ccccc2)NC(=O)[C@H](CCN)NC(=O)[C@@H](NC(=O)[C@H](CN)NC(=O)[C@@H](NC(=O)[C@H](CCN)c2cccc(Cl)c2)[C@@H](C)O)CCNC(=O)[C@H]([C@@H](C)O)NC(=O)[C@H](CCN)NC(=O)[C@H](CCN)NC1=O [reference compound] (X25-T[Dap][Dab][Dab][dF]L[Dab][Dab]T; lactam 3-C)	–	–	–	–	–	–	–	Cytotoxicity (measured IC50 relative to that recorded for Polymyxin B) [8]: 5.1; 4 hr kidney level/rel. cytotoxicity [9]: 115; Drug Level in Kidney (μg/g kidney, 4 h) ([9]; sc, 17.2 mg/kg): 589 μg/g kidney
CC[C@@H]1NC(=O)[C@@H](CC(C)C)NC(=O)[C@H](CCN)NC(=O)[C@@H](NC(=O)[C@H](CN)NC(=O)[C@@H](NC(=O)C[C@H](CN)c2cccc(-c3ccsc3)c2)[C@@H](C)O)CCNC(=O)[C@H]([C@@H](C)O)NC(=O)[C@H](CCN)NC(=O)[C@H](CCN)NC1=O [Example 30, (S)-4-amino-3-(3- (thiophen-3-yl)phenyl)butanoyl- Thr-Dap-Cyclo[Dab- Dab-DLeu-Abu-Dab- Dab-Thr]] (X14-T[Dap][Dab][Dab][dL][Abu][Dab][Dab]T; lactam 3-C)	–	–	–	0.5 (≈ 0.442 µM)	8 (≈ 7.08 µM)	16 (≈ 14.2 µM)	0.25 (≈ 0.221 µM)	HK-2 rel to PMB [8]: 37.5; MIC A. baumannii NCTC 13424 ([7]; NCTC 13424): 0.06 µg/mL (≈ 0.0531 µM); tissue level at time at 4 h ([9]; sc, 17.2 mg/kg): 252000 ng/g
Cc1cccc([C@@H](CN)CC(=O)N[C@H](C(=O)N[C@@H](CN)C(=O)N[C@H]2CCNC(=O)[C@H]([C@@H](C)O)NC(=O)[C@H](CCN)NC(=O)[C@H](CCN)NC(=O)[C@H](CC(C)C)NC(=O)[C@@H](Cc3ccccc3)NC(=O)[C@H](CCN)NC2=O)[C@@H](C)O)c1 [Example 21, (S)-4-amino-3-(m- tolyl)butanoyl-Thr- Dap-Cyclo[Dab-Dab- DPhe-Leu-Dab-Dab- Thr]] (X10-T[Dap][Dab][Dab][dF]L[Dab][Dab]T; lactam 3-C)	–	–	–	0.5 (≈ 0.445 µM)	16 (≈ 14.2 µM)	32 (≈ 28.5 µM)	0.25 (≈ 0.222 µM)	HK-2 rel to PMB [8]: 26.7; MIC K. pneumoniae ATCC 13822 ([4]; ATCC 13822): 0.25 µg/mL (≈ 0.222 µM); tissue level at time at 4 h ([9]; sc, 17.2 mg/kg): 209000 ng/g
CC(C)C[C@@H]1NC(=O)[C@@H](Cc2ccccc2)NC(=O)[C@H](CCN)NC(=O)[C@@H](NC(=O)[C@H](CN)NC(=O)[C@@H](NC(=O)[C@H](CCN)c2ccc(Cl)cc2)[C@@H](C)O)CCNC(=O)[C@H]([C@@H](C)O)NC(=O)[C@H](CCN)NC(=O)[C@H](CCN)NC1=O [reference compound] (X24-T[Dap][Dab][Dab][dF]L[Dab][Dab]T; lactam 3-C)	–	–	–	–	–	–	–	Cytotoxicity (measured IC50 relative to that recorded for Polymyxin B) [8]: 4.8; 4 hr kidney level/rel. cytotoxicity [9]: 111; Drug Level in Kidney (μg/g kidney, 4 h) ([9]; sc, 17.2 mg/kg): 533 μg/g kidney
